Source: paper PMC10905995, “Strategy for the Enzymatic Acylation of the Apple Flavonoid Phloretin Based on Prior α-Glucosylation” (Journal of Agricultural and Food Chemistry, 2024)
Values after ≈ are worked out from the molar mass of the structure shown.

What was measured:
[1] = Aqueous solubility (saturated conditions, 3 days, UV 297 nm); type: physicochemical; conditions: water, 25 °C, thermodynamic from solid
Description: The compounds were incubated at 25 °C in water (saturated conditions) during 3 days under orbital stirring (1000 rpm). Then, the samples were centrifuged, and the supernatants (200 μL) were analyzed in triplicate in a 96-well plate, using a phloretin calibration curve in methanol (0–200 μg/mL). The absorbance was measured at 297 nm in a UV–vis spectrophotometer (Tecan Infinite M200).

[2] = In vitro percutaneous absorption, Franz static diffusion cells; type: in vitro ADME; conditions: pig skin biopsies, 24 h exposure; for effect of acylation on skin absorption: versus phloretin and 4′-O-α-glucoside
Description: The study was carried out in vitro with pig biopsies placed on Franz static diffusion cells (3 mL, 1.86 cm^2 of exposed area, […], Lara-Spiral, Courtenon, France) in order to determine the distribution of the active compound (API) at the different skin layers after an exposure time of 24 h. All materials and procedures for this test have been described in a previous report employing phloretin and two glucosides.[33] The concentration of the extracted active compound was determined with the HPLC method described before.
Figure 6 In vitro percutaneous absorption of acylated derivatives of phloretin and their precursors (phloretin and its 4′-O-α-glucoside) within the different skin layers. W is the surface excess, SC is the stratum corneum, E is the epidermis, D is the dermis, FR is the fluid receptor, and Perc. Abs. is the percutaneous absorption. The results are expressed as μg/cm^2 of the active pharmaceutical ingredient (API). Mean values ± standard deviations, n = 3; *p < 0.05 vs phloretin; ^#p < 0.05 vs α-Glc-phloretin.

[3] = design: method as in doi:10.1002/adsc.202100201; conditions: cited from earlier work

solubility at 3 days [1] | effect of acylation on skin absorption [2] | percutaneous absorption, increase versus phloretin and 4′-O-α-glucoside [2] | Compound | aqueous solubility greater than aglycone ([3]; versus phloretin aglycone) | solubility ([3]; water, 25 °C, data available in a previous article)
22.1 ± 0.5 µg/mL (≈ 39.3 µM) | no significant effect |  | CCCCCCCC(=O)OC[C@H]1O[C@H](Oc2cc(O)c(C(=O)CCc3ccc(O)cc3)c(O)c2)[C@H](O)[C@@H](O)[C@@H]1O [1a, phloretin 4′-O-(6-O-octanoyl)-α-D-glucopyranoside] |  | 
 |  |  | O=C(CCc1ccc(O)cc1)c1c(O)cc(O[C@H]2O[C@H](CO)[C@@H](O)[C@H](O)[C@H]2O)cc1O [phloretin 4′-O-α-D-glucoside, phloretin 4′-O-α-D-glucopyranoside] | 71 fold | 1644 ± 101 µg/mL (≈ 3770 µM)
7.1 ± 0.3 µg/mL (≈ 10.5 µM) | no significant effect |  | CCCCCCCCCCCCCCCC(=O)OC[C@H]1O[C@H](Oc2cc(O)c(C(=O)CCc3ccc(O)cc3)c(O)c2)[C@H](O)[C@@H](O)[C@@H]1O [1c, phloretin 4′-O-(6-O-palmitoyl)-α-D-glucopyranoside] |  | 
6 ± 0.2 µg/mL (≈ 9.7 µM) |  | approximately 3 fold | CCCCCCCCCCCC(=O)OC[C@H]1O[C@H](Oc2cc(O)c(C(=O)CCc3ccc(O)cc3)c(O)c2)[C@H](O)[C@@H](O)[C@@H]1O [1b, phloretin 4′-O-(6-O-lauroyl)-α-D-glucopyranoside] |  | 
